The target of the assay is T1, CETP (Homo sapiens, UniProt P11597).
T1 construct: from tissue; host or cells: human plasma from normal volunteers
T1 sequence (P11597 18-493): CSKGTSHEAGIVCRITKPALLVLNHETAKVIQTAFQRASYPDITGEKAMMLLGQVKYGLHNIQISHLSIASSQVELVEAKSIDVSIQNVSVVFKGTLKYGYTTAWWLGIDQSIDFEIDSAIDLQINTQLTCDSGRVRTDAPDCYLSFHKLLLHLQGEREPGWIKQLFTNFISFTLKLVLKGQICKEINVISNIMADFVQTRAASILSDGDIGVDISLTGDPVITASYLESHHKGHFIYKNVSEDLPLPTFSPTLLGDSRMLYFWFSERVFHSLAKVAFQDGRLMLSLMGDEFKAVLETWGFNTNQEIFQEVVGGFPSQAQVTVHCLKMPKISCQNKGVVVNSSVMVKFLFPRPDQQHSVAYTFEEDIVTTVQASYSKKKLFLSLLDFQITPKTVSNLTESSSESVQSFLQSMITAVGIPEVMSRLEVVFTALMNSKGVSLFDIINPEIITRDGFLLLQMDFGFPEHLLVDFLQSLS
Briefly: CETP in vitro assay (Amersham kit TRKQ7005; modified protocol in human plasma, [3H]CE-HDL transfer). Format: biochemical. Particulars: for pIC50: from plots of % control versus compound concentration. As to the method:
The CETP inhibitory activity of the compounds was determined using a commercially available kit from Amersham Biosciences (Catalog #TRKQ7005).
Briefly, 80 μl of human plasma (obtained from normal volunteers), approximately 25 μg/ml (20 μl) of [^3H]CE-HDL (Amersham Biosciences from kit TRKQ7005) and 1 μl of compound dissolved in DMSO was incubated for at least 4 hrs at 37° C. and non-specific transfer was determined by incubating a corresponding plate at 4° C. (blank). After the incubation period, 10 μl of a solution of 1% Dextralip 50/0.5M MgCl2, pH 7.4 was added, vortexed and incubated at room temperature for 10 min. The plate was then centrifuged for 30 min at 10° C. at 300 rpm in a Sorvall RT6000B centrifuge. Fifty microliters of the supernatant was transferred to a Picoplate (Packard) containing 100 μl of Microscint 40 (Perkin Elmer) and mixed for 30 min using a plate mixer. The radioactivity was counted using a TopCount (Perkin Elmer) and the % control was determined in the samples using the following formula: % transfer relative to vehicle controls (% control)=[cpm blank−cpm test]/cpm blank/cpm control]×100. IC50s were calculated from plots of the % control versus compound concentration.

Setting [1] is: 1 μM compound, read-out: % Inhibition @ 1 μM.

Here are results for 26 compounds from patent US7928238B2, “1,2,3,4-tetrahydro-quinoline derivatives as CETP inhibitors” (Janssen Pharmaceutica NV, priority 2006, dated 2011).

pIC50: −log10 of the molar value. Where “and” joins values, the source holds several entries; their conditions need not be identical. Equal entries are not always repeated. Where two headings read alike, the source gives them in different places.

As a reminder, the pIC50 is the IC50 on a negative log10 scale, so that one unit is a factor of ten. A high value points to a small IC50. Compound `CCc1cc(Oc2cccc3c2CCC(c2cccc(OC(F)(F)C(F)F)c2)N3CC(O)C(F)(F)F)ccc1Cl` (stereo not drawn) [Compound 85, 3-{5-(4-Chloro-3-ethyl-phenoxy)-2-[3-(1,1,2,2-tetrafluro-ethoxy)-phenyl]-3,4-dihydro-2H-quinolin-1-yl}-1,1,1-trifluoro-propan-2-ol] had a pIC50 of 6.40. Besides, under “1 μM compound”, the “% Inhibition @ 1 μM” value is reported as 86%. By inhibition is commonly meant the drop in the measured response relative to a control, in per cent. Consider `O=Cc1cccc(-c2cccc3c2CCC(c2cccc(OC(F)(F)C(F)F)c2)N3CC(O)C(F)(F)F)c1` (stereo not drawn) [Compound 63, 3-[2-[3-(1,1,2,2-Tetrafluoro-ethoxy)-phenyl]-1-(3,3,3-trifluoro-2-hydroxy-propyl)-1,2,3,4-tetrahydro-quinolin-5-yl]-benzaldehyde], for which, under setting [1], the inhibition at 1 µM is 39%. As for `OC(CN1c2cccc(-c3cccc(OC(F)(F)F)c3)c2CCC1c1ccccc1)C(F)(F)F` (stereo not drawn) [Compound 19, 1,1,1-Trifluoro-3-[2-phenyl-5-(3-trifluoromethoxy-phenyl)-3,4-dihydro-2H-quinolin-1-yl]-propan-2-ol], the “% Inhibition @ 1 μM” value (1 μM compound) was found to be 21%. For the compound `COc1cccc(C2CCc3c(-c4cccc(OC(F)(F)F)c4)cccc3N2CC(O)C(F)(F)F)c1` (stereo not drawn) [Compound 26, 1,1,1-Trifluoro-3-[2-(3-methoxy-phenyl)-5-(3-trifluoromethoxy-phenyl)-3,4-dihydro-2H-quinolin-1-yl]-propan-2-ol], the “% Inhibition @ 1 μM” value (1 μM compound) stood at 4%. For `OC(CN1c2cccc(-c3cccc(OC(F)(F)F)c3)c2CCC1c1cccs1)C(F)(F)F` (stereo not drawn) [Compound 34, 1,1,1-Trifluoro-3-[2-thiophen-2-yl-5-(3-trifluoromethoxy-phenyl)-3,4-dihydro-2H-quinolin-1-yl]-propan-2-ol], the “% Inhibition @ 1 μM” value (1 μM compound) is recorded as 12%. The compound `CCc1cc(Oc2cccc3c2CCC(c2cccc(OC(F)(F)C(F)F)c2)N3CC(O)C(F)(F)F)ccc1Cl` (stereo not drawn) [Compound 84, 3-{5-(4-Chloro-3-ethyl-phenoxy)-2-[3-(1,1,2,2-tetrafluro-ethoxy)-phenyl]-3,4-dihydro-2H-quinolin-1-yl}-1,1,1-trifluoro-propan-2-ol] gave a negative-log IC50 (pIC50) of 6.22. Besides, the “% Inhibition @ 1 μM” value (1 μM compound) was found to be 62%.

In the case of `OC(CN1c2cccc(-c3cccc(F)c3)c2CCC1c1cccc(OC(F)(F)C(F)F)c1)C(F)(F)F` (stereo not drawn) [Compound 11, 1,1,1-Trifluoro-3-{5-(3-fluoro-phenyl)-2-[3-(1,1,2,2-tetrafluoro-ethoxy)-phenyl]-3,4-dihydro-2H-quinolin-1-yl}-propan-2-ol], the pIC50 is 7.15 and 7.02 and 6.73. Besides, the “% Inhibition @ 1 μM” value (1 μM compound) is 101% and 99% and 79%.

On to `OC(CN1c2cccc(-c3cccc(Cl)c3)c2CCC1c1cccc(OC(F)(F)C(F)F)c1)C(F)(F)F` (stereo not drawn) [Compound 15, 3-{5-(3-Chloro-phenyl)-2-[3-(1,1,2,2-tetrafluoro-ethoxy)-phenyl]-3,4-dihydro-2H-quinolin-1-yl}-1,1,1-trifluoro-propan-2-ol], for which the pIC50 was 7.17 and 7.23. Besides, the “% Inhibition @ 1 μM” value (1 μM compound) was determined as 66%. Besides, the inhibition at 1 µM (read-out: % Inhibition @ 1 μM, 1 μM compound) turned out to be 68%. As to `C[C@@H](O)CN1c2cccc(-c3cccc(OC(F)(F)F)c3)c2CC[C@@H]1c1cccc(OC(F)(F)C(F)F)c1` [Compound 70, (αR,2R)-3,4-Dihydro-α-methyl-2-[3-(1,1,2,2-tetrafluoroethoxy)phenyl]-5-[3-(trifluoromethoxy)phenyl]-1(2H)-quinolineethanol], the pIC50 is 7.20 and 7.41. The “% Inhibition @ 1 μM” value (1 μM compound) was 69% and 59%. Besides, under setting [1], the inhibition at 1 µM came out at 61%. For the compound `O[C@@H](CN1c2cccc(-c3cccc(OC(F)(F)F)c3)c2CC[C@H]1c1cccc(OC(F)(F)C(F)F)c1)C(F)(F)F` [Compound 80, (2S, αS)-3,4-Dihydro-2-[3-(1,1,2,2-tetrafluoroethoxy)phenyl]-5-[3-(trifluoromethoxy)phenyl]-α-(trifluoromethyl)-1(2H)-quinolineethanol], the inhibition at 1 µM under setting [1] was determined as 20%.

`C[C@H](O)CN1c2cccc(-c3cccc(OC(F)(F)F)c3)c2CC[C@@H]1c1cccc(OC(F)(F)C(F)F)c1` [Compound 61]: the inhibition at 1 µM under setting [1] was found to be 0%. Consider `COc1cccc(-c2cccc3c2CCC(c2cccc(OC(F)(F)C(F)F)c2)N3CC(O)C(F)(F)F)c1` (stereo not drawn) [Compound 73, 1,1,1-Trifluoro-3-{5-(3-methoxy-phenyl)-2-[3-(1,1,2,2-tetrafluoro-ethoxy)-phenyl]-3,4-dihydro-2H-quinolin-1-yl}-propan-2-ol], for which, where the note is “1 μM compound”, the “% Inhibition @ 1 μM” value is 50% and 26%.

As for `COC[C@@H](O)CN1c2cccc(-c3cccc(OC(F)(F)F)c3)c2CC[C@@H]1c1cccc(OC(F)(F)F)c1` [Compound 51], the inhibition at 1 µM under setting [1] was 13%. Consider `OC(CN1c2cccc(-c3cccc(Cl)c3)c2CCC1c1cccc(OC(F)(F)C(F)F)c1)C(F)(F)F` (stereo not drawn) [Compound 16, 3-{5-(3-Chloro-phenyl)-2-[3-(1,1,2,2-tetrafluoro-ethoxy)-phenyl]-3,4-dihydro-2H-quinolin-1-yl}-1,1,1-trifluoro-propan-2-ol], for which the inhibition at 1 µM under setting [1] turned out to be 55%.

As for `OC(CN1c2cccc(-c3cccc(OC(F)(F)F)c3)c2CCC1c1cccc(OC(F)(F)F)c1)C(F)(F)F` (stereo not drawn) [Compound 31, 3-[2,5-Bis-(3-trifluoromethoxy-phenyl)-3,4-dihydro-2H-quinolin-1-yl]-1,1,1-trifluoro-propan-2-ol], the negative logarithm of the IC50 (pIC50) was 6.82 and 7.00. The “% Inhibition @ 1 μM” value (1 μM compound) is 77% and 72% and 67% and 66% and 62%. Consider `O[C@H](CN1c2cccc(-c3cccc(OC(F)(F)F)c3)c2CC[C@@H]1c1cccc(OC(F)(F)C(F)F)c1)C(F)(F)F` [Compound 79, (2R, αR)-3,4-Dihydro-2-[3-(1,1,2,2-tetrafluoroethoxy)phenyl]-5-[3-(trifluoromethoxy)phenyl]-α-(trifluoromethyl)-1(2H)-quinolineethanol], for which the negative logarithm of the IC50 (pIC50) is < 5.52. Moreover, the inhibition at 1 µM under setting [1] was 62%.

As for `C[C@H](O)CN1c2cccc(-c3cccc(OC(F)(F)F)c3)c2CC[C@H]1c1cccc(OC(F)(F)C(F)F)c1` [Compound 62], the inhibition at 1 µM under setting [1] was 30%. Turning to `COc1cccc(-c2cccc3c2CC[C@H](c2cccc(OC(F)(F)F)c2)N3C[C@H](O)C(F)(F)F)c1` [Compound 59], the inhibition at 1 µM under setting [1] turned out to be 30%. `CCC1CCc2c(-c3cccc(OC(F)(F)F)c3)cccc2N1CC(O)C(F)(F)F` (stereo not drawn) [Compound 36, 3-[2-Ethyl-5-(3-trifluoromethoxy-phenyl)-3,4-dihydro-2H-quinolin-1-yl]-1,1,1-trifluoro-propan-2-ol]: the “% Inhibition @ 1 μM” value (1 μM compound) was 11% and 13%. In the case of `C[C@@H](O)CN1c2cccc(-c3cccc(F)c3)c2CC[C@H]1c1cccc(OC(F)(F)F)c1` [Compound 56], the inhibition at 1 µM under setting [1] came to 0%. `CC(C)C(O)CN1c2cccc(-c3cccc(OC(F)(F)F)c3)c2CCC1c1cccc(OC(F)(F)F)c1` (stereo not drawn) [Compound 45, 1-[2,5-Bis-(3-trifluoromethoxy-phenyl)-3,4-dihydro-2H-quinolin-1-yl]-3-methyl-butan-2-ol] showed a pIC50 of 6.49. Also, the “% Inhibition @ 1 μM” value (1 μM compound) is 74% and 84%. `OC(CN1c2cccc(-c3cccc(OC(F)(F)F)c3)c2CCC1c1cccc(F)c1)C(F)(F)F` (stereo not drawn) [Compound 24, 1,1,1-Trifluoro-3-[2-(3-fluoro-phenyl)-5-(3-trifluoromethoxy-phenyl)-3,4-dihydro-2H-quinolin-1-yl]-propan-2-ol]: where the note is “1 μM compound”, the “% Inhibition @ 1 μM” value is 4%. In the case of `N#Cc1cccc(C2CCc3c(-c4cccc(OC(F)(F)F)c4)cccc3N2CC(O)C(F)(F)F)c1` (stereo not drawn) [Compound 27, 3-[1-(3,3,3-Trifluoro-2-hydroxy-propyl)-5-(3-trifluoromethoxy-phenyl)-1,2,3,4-tetrahydro-quinolin-2-yl]-benzonitrile], the pIC50 was 6.39. In addition, the “% Inhibition @ 1 μM” value (1 μM compound) is 48% and 38%.

In the case of `OC(CN1c2cccc(-c3cccc(OC(F)(F)F)c3)c2CCC1c1cccc(OC(F)(F)F)c1)C(F)(F)F` (stereo not drawn) [Compound 32, 3-[2,5-Bis-(3-trifluoromethoxy-phenyl)-3,4-dihydro-2H-quinolin-1-yl]-1,1,1-trifluoro-propan-2-ol], the “% Inhibition @ 1 μM” value (1 μM compound) is given as 34%. With `OC(CN1c2cccc(-c3cccc(OC(F)(F)F)c3)c2CCC1c1cccc(C(F)(F)F)c1)C(F)(F)F` (stereo not drawn) [Compound 17, 1,1,1-Trifluoro-3-[5-(3-trifluoromethoxy-phenyl)-2-(3-trifluoromethyl-phenyl)-3,4-dihydro-2H-quinolin-1-yl]-propan-2-ol], the pIC50 was 7.08 and 6.69. Also, the “% Inhibition @ 1 μM” value (1 μM compound) was 43% and 55%. For the same compound, the inhibition at 1 µM under setting [1] is 54%. `OC(CN1c2cccc(-c3cccc(F)c3)c2CCC1c1cccc(OC(F)(F)C(F)F)c1)C(F)(F)F` (stereo not drawn) [Compound 12, 1,1,1-Trifluoro-3-{5-(3-fluoro-phenyl)-2-[3-(1,1,2,2-tetrafluoro-ethoxy)-phenyl]-3,4-dihydro-2H-quinolin-1-yl}-propan-2-ol]: the “% Inhibition @ 1 μM” value (1 μM compound) was 41% and 64%.
